Earlier results, collected in patent US20230111350A1, “Opthalmic Compositions for Treating Coronaviruses” (priority 2020, published 2023).

Tests used:
SARS-CoV-2 = details: relative to chloroquine
[1] = systemic administration; dependent on daily dose by weight
[2] = relative to chloroquine

## CCN(CC)CCCC(C)Nc1ccnc2cc(Cl)ccc12 (stereo not shown) [chloroquine]
ARPE-19
  toxicity in ARPE-19 cells: vacuole formation and cell death

## Oc1c(I)cc(Cl)c2cccnc12 [clioquinol]
ARPE-19; co-treatment with chloroquine, zinc-dependent, by reversing autophagy arrest
  effect on chloroquine-associated toxicity in ARPE-19 cells: attenuated the chloroquine-associated toxicity

## CCN(CCO)CCCC(C)Nc1ccnc2cc(Cl)ccc12 (stereo not shown) [hydroxychloroquine]
SARS-CoV-2
  potency at inhibiting SARS-CoV-2 in vitro: more potent than chloroquine
[1]
  prevalence of retinal toxicity: ≤ 7.5%
[2]
  toxicity profile: reduced toxicity profile
COVID-19; after 6 days, 600 mg/day oral, untreated 90%
  percentage of patients testing positive for COVID-19: 25%
COVID-19; oral administration
  viral load: strong reduction in viral load
